In data set [1] the target is T1, cdk5/p25 (Homo sapiens, UniProt Q00535). Put plainly: Inhibition studies with substrate analogues and product ADP at 0.2 mM MgCl2. The class given is biochemical. Conditions: 0.2 mM Mg^2+.
The target in data set [2] is T1, cdk5/p25. Description: Influence of D2O on inhibitor. The format is biochemical. The conditions noted are these: 10 µM ATP, saturating H1P; data not shown.
Data set [3] addresses T1, cdk5/p25. Put plainly: Initial velocity kinetic analysis of cdk5/p25-catalyzed H1P phosphorylation. The class given is biochemical.
For data set [4] the following is noted: cited from earlier work.
[5] abbreviates: versus variable substrate ATP (H1P fixed).
[6] abbreviates: versus variable substrate H1P (ATP fixed).

Each structure is given as a SMILES string. Where two headings read alike, the source gives them in different places.

T1 sequence (Q00535 whole entry, species assumed): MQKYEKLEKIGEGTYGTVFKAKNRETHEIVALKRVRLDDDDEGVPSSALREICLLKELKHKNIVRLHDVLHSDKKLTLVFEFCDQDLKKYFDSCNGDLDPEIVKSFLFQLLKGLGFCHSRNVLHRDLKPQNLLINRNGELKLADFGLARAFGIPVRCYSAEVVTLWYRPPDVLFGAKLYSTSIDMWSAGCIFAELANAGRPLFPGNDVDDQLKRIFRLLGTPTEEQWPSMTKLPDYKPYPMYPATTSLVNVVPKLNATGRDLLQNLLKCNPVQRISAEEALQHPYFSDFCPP
T1 sequence (Q15078 99-307 partner limits assumed, species assumed): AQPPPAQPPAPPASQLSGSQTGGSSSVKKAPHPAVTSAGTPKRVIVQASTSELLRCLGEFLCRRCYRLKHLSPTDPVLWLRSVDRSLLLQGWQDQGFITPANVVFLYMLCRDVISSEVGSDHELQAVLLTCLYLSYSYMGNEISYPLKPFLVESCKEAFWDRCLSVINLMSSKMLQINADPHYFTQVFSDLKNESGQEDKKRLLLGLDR

For the compound `Nc1ncnc2c1ncn2[C@@H]1O[C@H](COP(=O)(O)OP(=O)(O)O)[C@@H](O)[C@H]1O` [ADP], the values for the mechanism of inhibition result at cdk5/p25 [1] (setting [5]) and on cdk5/p25 [1] (setting [6]) were “competitive” and “noncompetitive”, respectively.
`Nc1ncnc2c1ncn2[C@@H]1O[C@H](COP(=O)(O)O)[C@@H](O)[C@H]1O` [AMP]: the “enzyme forms that inhibitor binds” value on cdk5/p25 [1] is “binds to both E and E:B complex”. The mechanism of inhibition result is “competitive” on cdk5/p25 [1] (setting [5]) and “noncompetitive” on cdk5/p25 [1] (setting [6]). The “dissociation constant from E:H1P:AMP, lowering in 85% D2O compared with water” value at cdk5/p25 [2] is “approximately 1.5 fold”.
For `Nc1ncnc2c1ncn2[C@@H]1O[C@H](COP(=O)(O)OP(=O)(O)OP(=O)(O)O)[C@@H](O)[C@H]1O` [ATP, Adenosine 5’-triphosphate], at cdk5/p25 [3] (KATP (KMgATP), 2.5 mM free Mg^2+), the Kd stood at 6.1 ± 1.5 µM. In addition, the “pKa for protonation of the γ-phosphate of ATP” value in data set [4] was 4.6.
On cdk5/p25 [3] (MgATP dependence of (kcat)H1P at 0.2 mM free Mg^2+ (Figure 1B)), `Nc1ncnc2c1ncn2[C@@H]1O[C@H](COP(=O)(O)OP(=O)([O-])OP(=O)([O-])O)[C@@H](O)[C@H]1O.[Mg+2]` [MgATP] registered a hill coefficient of 1.8 ± 0.1. Further, the Kd at cdk5/p25 [3] (read-out: KATP (KMgATP), 0.2 mM free Mg^2+) is 60 ± 20 µM; on cdk5/p25 [3] (read-out: KATP (KMgATP), 2.5 mM free Mg^2+), 6.1 ± 1.5 µM. In addition, the “dissociation constant of MgATP” value in data set [4] (used to calculate MgATP and free Mg^2+ concentrations) was 14.3 µM.
